Active and inactive are the calls of the source. No cut-off for these calls is given here.
Columns and labels:
Mus musculus = species on record: Mus musculus; experiment: Inhibition of mouse Plk1
HeLa [1] = experiment: Antimitotic activity against human HeLa cells assessed as DNA breakdown at 60 nM incubated after 48 hrs by flow cytometric analysis; format: functional, cell-based
[2] = target: T1, Dual specificity mitogen-activated protein kinase kinase 1 (Homo sapiens, UniProt Q02750); experiment: Inhibition of MKK1 (unknown origin)
T1 sequence (Q02750 whole entry): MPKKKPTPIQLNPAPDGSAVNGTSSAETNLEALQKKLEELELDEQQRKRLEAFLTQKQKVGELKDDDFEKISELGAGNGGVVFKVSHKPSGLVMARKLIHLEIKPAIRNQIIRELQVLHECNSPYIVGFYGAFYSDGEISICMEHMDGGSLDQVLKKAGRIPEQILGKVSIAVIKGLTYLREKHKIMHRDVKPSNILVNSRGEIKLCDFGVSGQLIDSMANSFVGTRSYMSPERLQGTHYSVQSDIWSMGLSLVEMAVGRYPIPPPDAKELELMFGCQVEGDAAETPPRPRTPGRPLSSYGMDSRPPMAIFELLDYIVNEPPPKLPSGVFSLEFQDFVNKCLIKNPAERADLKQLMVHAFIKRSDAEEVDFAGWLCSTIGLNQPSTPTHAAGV

HeLa [3] = experiment: Antimitotic activity against human HeLa cells assessed as appearance of monopolar polo spindles at 100 to 1000 nM incubated for 2 hrs by immunofluorescence analysis; format: functional, cell-based; conditions: dose 100-1000 nM
[4] = target: Mitogen-activated protein kinase 12 (Homo sapiens, UniProt P53778); experiment: Inhibition of p38gamma (unknown origin)
HeLa [5] = experiment: Antimitotic activity against human HeLa cells assessed as arrest in G2/M phase measuring by accumulation in 4N DNA content at 10 nM incubated for 24 hrs by flow cytometric analysis; format: functional, cell-based
[6] = target: Receptor tyrosine-protein kinase erbB-4 (Homo sapiens, UniProt Q15303); experiment: Inhibition of ErbB4 (unknown origin)
HeLa [7] = experiment: Antimitotic activity against human HeLa cells assessed as cell cycle at 10 nM incubated for 2 hrs by immunofluorescence analysis; format: functional, cell-based
NCI-H460 [8] = experiment: Antitumor activity against human NCI-H460 cells xenografted female BomTac:NMRI-Foxn1nu mouse assessed as appearance of massive tumor cell at 60 mg/kg, iv after 48 hrs administration by TUNEL staining; format: functional, organism-based
NCI-H460 [9] = experiment: Antitumor activity against human NCI-H460 cells xenografted female BomTac:NMRI-Foxn1nu mouse assessed as increase in mitotic index at 60 mg/kg, iv after 24 hrs administration by immunohistochemical method; format: functional, organism-based
[10] = target: RAF proto-oncogene serine/threonine-protein kinase (Homo sapiens, UniProt P04049); experiment: Inhibition of C-RAF (unknown origin)
RAF proto-oncogene serine/threonine-protein kinase, sequence (P04049 whole entry): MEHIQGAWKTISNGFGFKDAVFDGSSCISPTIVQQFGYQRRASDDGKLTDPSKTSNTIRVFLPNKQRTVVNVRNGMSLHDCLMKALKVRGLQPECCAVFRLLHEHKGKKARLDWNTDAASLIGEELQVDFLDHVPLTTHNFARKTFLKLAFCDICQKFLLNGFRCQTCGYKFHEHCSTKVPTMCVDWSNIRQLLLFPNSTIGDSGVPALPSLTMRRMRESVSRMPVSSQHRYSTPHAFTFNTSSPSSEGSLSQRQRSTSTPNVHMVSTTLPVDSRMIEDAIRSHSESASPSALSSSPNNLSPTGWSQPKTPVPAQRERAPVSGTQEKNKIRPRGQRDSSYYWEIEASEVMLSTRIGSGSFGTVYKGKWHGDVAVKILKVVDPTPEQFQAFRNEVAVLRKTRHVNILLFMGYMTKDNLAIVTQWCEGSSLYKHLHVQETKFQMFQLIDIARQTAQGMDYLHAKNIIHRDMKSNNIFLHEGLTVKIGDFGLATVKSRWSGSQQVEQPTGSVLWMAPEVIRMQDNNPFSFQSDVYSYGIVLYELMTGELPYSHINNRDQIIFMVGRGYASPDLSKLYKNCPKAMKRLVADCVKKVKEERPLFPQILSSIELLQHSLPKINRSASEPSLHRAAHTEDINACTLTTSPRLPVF

[11] = target: Platelet-derived growth factor receptor beta (Homo sapiens, UniProt P09619); experiment: Inhibition of PDGFRb (unknown origin)
Platelet-derived growth factor receptor beta, sequence (P09619 whole entry): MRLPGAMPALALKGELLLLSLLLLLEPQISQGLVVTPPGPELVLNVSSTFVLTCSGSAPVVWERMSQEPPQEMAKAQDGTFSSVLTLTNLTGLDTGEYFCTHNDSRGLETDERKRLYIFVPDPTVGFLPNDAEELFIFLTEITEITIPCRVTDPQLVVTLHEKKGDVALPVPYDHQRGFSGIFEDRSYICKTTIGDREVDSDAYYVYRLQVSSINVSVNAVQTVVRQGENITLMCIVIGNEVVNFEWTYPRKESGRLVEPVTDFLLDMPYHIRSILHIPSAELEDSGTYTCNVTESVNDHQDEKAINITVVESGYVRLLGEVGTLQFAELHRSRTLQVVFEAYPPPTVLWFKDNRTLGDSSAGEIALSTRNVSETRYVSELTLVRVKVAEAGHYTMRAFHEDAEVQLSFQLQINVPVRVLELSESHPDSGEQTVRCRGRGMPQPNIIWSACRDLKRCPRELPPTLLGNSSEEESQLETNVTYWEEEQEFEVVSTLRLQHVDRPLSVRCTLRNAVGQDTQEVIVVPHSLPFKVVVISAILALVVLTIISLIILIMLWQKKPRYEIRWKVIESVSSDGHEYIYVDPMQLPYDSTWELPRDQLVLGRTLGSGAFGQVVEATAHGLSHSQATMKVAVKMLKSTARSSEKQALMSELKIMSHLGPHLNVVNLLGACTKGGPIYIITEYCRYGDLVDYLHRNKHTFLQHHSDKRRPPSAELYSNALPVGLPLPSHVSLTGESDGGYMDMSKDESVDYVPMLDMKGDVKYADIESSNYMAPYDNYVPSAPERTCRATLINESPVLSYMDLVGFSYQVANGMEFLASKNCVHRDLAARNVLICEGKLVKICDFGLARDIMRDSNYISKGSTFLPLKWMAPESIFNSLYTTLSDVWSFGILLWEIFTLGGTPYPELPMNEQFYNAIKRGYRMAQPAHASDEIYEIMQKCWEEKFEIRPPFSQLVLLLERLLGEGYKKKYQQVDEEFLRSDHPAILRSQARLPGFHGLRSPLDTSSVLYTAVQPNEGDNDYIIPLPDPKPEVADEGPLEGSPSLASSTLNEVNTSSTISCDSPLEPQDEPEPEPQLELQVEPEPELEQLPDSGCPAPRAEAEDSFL

HeLa [12] = experiment: Antimitotic activity against human HeLa cells assessed as accumulation of mitotic cells with spindles at 25 nM incubated for 2 hrs by immunofluorescence analysis; format: functional, cell-based
HeLa [13] = experiment: Antimitotic activity against human HeLa cells assessed as change in S phase at 60 nM incubated for 48 hrs by flow cytometric analysis; format: functional, cell-based
[14] = target: T1, Dual specificity mitogen-activated protein kinase kinase 1; experiment: Inhibition of MEK1 (unknown origin)
[15] = target: Serine/threonine-protein kinase Sgk1 (Homo sapiens, UniProt O00141); experiment: Inhibition of SGK (unknown origin)
HCT-116 [16] = experiment: Antitumor activity against human HCT-116 cells xenografted female BomTac:NMRI-Foxn1nu mouse assessed as T/C at 40 mg/kg, iv once per week administrated for 2 consecutive days relative to control; format: functional; conditions: time 4 day
HeLa [17] = experiment: Antimitotic activity against human HeLa cells assessed as DNA breakdown at 60 nM incubated after 24 hrs by flow cytometric analysis; format: functional, cell-based
[18] = target: Tyrosine-protein kinase CSK (Homo sapiens, UniProt P41240); experiment: Inhibition of CSK (unknown origin)
HeLa [19] = experiment: Antimitotic activity against human HeLa cells assessed as cell apoptosis at 60 nM incubated after 24 hrs by flow cytometric analysis; format: functional, cell-based
HeLa [20] = experiment: Antimitotic activity against human HeLa cells assessed as accumulation in cleaved PARP p85 fragment at 60 nM incubated after 48 hrs by westernblot analysis; format: functional, cell-based
HCT-116 [21] = experiment: Antitumor activity against human HCT-116 cells xenografted female BomTac:NMRI-Foxn1nu mouse assessed as apparent diffusion coefficient of water at 50 mg/kg, iv administration and measured on day 4 by MRI assay; format: functional, organism-based; conditions: time 4.0 day
HeLa [22] = experiment: Antimitotic activity against human HeLa cells assessed as accumulation in cleaved PARP p85 fragment at 60 nM incubated after 24 hrs by westernblot analysis; format: functional, cell-based
HeLa [23] = experiment: Antimitotic activity against human HeLa cells assessed as change in telophase at 25 nM incubated for 2 hrs by immunofluorescence analysis; format: functional, cell-based
Angiopoietin-1 receptor = Angiopoietin-1 receptor (Homo sapiens, UniProt Q02763); experiment: Inhibition of Tie2 (unknown origin)
Ephrin type-A receptor 3 = Ephrin type-A receptor 3 (Homo sapiens, UniProt P29320); experiment: Inhibition of Hek (unknown origin)
[24] = Toxicity in against human HCT-116 cells xenografted female BomTac:NMRI-Foxn1nu mouse assessed as body weight change at 40 mg/kg, iv twice per week administrated for 2 consecutive days; format: organism-based; conditions: in vivo, 96 h, time 4 day
HeLa [25] = experiment: Antimitotic activity against human HeLa cells assessed as appearance and distribution of phenotypes at 50 nM incubated for 2 hrs by immunofluorescence analysis; format: functional, cell-based
HCT-116 [26] = experiment: Antitumor activity against human HCT-116 cells xenografted female BomTac:NMRI-Foxn1nu mouse assessed as tumor suppression at 40 mg/kg, iv twice per week administrated for 2 consecutive days relative to control; format: functional; conditions: time 2 day
[27] = target: Platelet-derived growth factor receptor alpha (Homo sapiens, UniProt P16234); experiment: Inhibition of PDGFRa (unknown origin)
[28] = target: Tyrosine-protein kinase ABL1 (Homo sapiens, UniProt P00519); experiment: Inhibition of Abl (unknown origin)
[29] = target: Phosphatidylinositol 4,5-bisphosphate 3-kinase catalytic subunit alpha isoform (Homo sapiens, UniProt P42336); experiment: Inhibition of PI3Ka (unknown origin)
HeLa [30] = experiment: Antimitotic activity against human HeLa cells assessed as cell arrest in G2/M phase at 60 nM incubated for 48 hrs by flow cytometric analysis; format: functional, cell-based
[31] = target: Mitogen-activated protein kinase 14 (Homo sapiens, UniProt Q16539); experiment: Inhibition of p38alpha (unknown origin)
[32] = target: Serine/threonine-protein kinase Nek6 (Homo sapiens, UniProt Q9HC98); experiment: Inhibition of Nek6 (unknown origin)
Serine/threonine-protein kinase Nek6, sequence (Q9HC98 whole entry): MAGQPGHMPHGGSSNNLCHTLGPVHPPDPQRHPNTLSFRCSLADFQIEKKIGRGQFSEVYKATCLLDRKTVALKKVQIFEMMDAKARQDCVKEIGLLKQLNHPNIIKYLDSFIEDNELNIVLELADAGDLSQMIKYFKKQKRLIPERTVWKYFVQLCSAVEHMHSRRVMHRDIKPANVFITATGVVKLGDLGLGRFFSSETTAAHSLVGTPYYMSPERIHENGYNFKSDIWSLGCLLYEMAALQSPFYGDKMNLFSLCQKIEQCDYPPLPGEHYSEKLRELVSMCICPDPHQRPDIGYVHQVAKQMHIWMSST

[33] = target: Mitogen-activated protein kinase 8 (Homo sapiens, UniProt P45983); experiment: Inhibition of JNK1 (unknown origin)
HCT-116 [34] = experiment: Antitumor activity against human HCT-116 cells xenografted female BomTac:NMRI-Foxn1nu mouse assessed as induction in tumor regression at 50 mg/kg, iv twice per week administrated for 2 consecutive days relative to control; format: functional, organism-based; conditions: time 4.0 day
TERT-RPE1 [35] = experiment: Antimitotic activity against hTERT-RPE1 cells assessed as mitotic cell appearing typical polo phenotype at 100 nM by immunofluorescence analysis relative to control; format: functional, Homo sapiens
TERT-RPE1 [36] = experiment: Antimitotic activity against hTERT-RPE1 cells assessed as remaining cell arrest at 100 nM by immunofluorescence analysis relative to control; format: functional, Homo sapiens
[37] = target: Serine/threonine-protein kinase PAK 2 (Homo sapiens, UniProt Q13177); experiment: Inhibition of PAK2 (unknown origin)
[38] = target: RAC-beta serine/threonine-protein kinase (Homo sapiens, UniProt P31751); experiment: Inhibition of PKBbeta (unknown origin)
[39] = target: Serine/threonine-protein kinase B-raf (Homo sapiens, UniProt P15056); experiment: Inhibition of B-RAF (unknown origin)
[40] = Toxicity in against human HCT-116 cells xenografted female BomTac:NMRI-Foxn1nu mouse assessed as body weight change at 40 mg/kg, iv once per week administrated for 2 consecutive days; format: organism-based; conditions: in vivo, 48 h, time 2 day
[41] = target: Macrophage-stimulating protein receptor (Homo sapiens, UniProt Q04912); experiment: Inhibition of Ron (unknown origin)
Macrophage-stimulating protein receptor, sequence (Q04912 25-304 limits assumed): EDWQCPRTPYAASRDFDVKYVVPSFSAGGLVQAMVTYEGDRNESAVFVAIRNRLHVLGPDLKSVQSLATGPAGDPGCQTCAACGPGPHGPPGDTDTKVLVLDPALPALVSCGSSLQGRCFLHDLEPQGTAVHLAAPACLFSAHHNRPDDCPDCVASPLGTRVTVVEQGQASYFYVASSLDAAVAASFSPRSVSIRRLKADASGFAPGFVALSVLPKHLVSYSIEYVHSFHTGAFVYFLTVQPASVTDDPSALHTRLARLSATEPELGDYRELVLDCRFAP
Macrophage-stimulating protein receptor, sequence (Q04912 310-1400 limits assumed): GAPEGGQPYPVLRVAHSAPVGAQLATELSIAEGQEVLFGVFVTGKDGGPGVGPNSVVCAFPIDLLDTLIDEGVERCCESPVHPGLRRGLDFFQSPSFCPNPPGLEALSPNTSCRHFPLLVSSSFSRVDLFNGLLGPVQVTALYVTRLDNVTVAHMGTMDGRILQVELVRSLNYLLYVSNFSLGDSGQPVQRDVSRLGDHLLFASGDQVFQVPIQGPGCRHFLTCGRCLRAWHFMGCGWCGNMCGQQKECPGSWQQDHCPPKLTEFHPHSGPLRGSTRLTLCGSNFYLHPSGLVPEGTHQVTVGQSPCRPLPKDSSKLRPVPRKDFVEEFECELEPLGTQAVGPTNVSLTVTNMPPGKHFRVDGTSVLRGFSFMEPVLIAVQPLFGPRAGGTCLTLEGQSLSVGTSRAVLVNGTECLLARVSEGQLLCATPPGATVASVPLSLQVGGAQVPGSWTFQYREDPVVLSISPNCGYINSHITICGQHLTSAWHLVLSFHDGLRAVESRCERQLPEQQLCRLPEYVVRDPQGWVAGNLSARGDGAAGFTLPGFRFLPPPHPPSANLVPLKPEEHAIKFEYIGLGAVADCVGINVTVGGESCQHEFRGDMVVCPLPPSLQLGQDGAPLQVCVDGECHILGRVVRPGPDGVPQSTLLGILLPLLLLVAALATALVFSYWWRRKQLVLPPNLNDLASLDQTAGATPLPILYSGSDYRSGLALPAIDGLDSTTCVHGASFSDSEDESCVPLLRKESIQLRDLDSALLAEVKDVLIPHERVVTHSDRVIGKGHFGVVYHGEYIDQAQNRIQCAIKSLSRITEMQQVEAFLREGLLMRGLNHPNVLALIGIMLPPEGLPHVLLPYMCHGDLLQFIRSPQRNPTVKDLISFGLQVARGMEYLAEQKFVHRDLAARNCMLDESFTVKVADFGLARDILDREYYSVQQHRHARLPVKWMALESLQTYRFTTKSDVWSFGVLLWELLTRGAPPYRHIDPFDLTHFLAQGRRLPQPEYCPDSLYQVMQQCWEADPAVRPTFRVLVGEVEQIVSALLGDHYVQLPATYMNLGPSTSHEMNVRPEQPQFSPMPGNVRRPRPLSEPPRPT

NCI-H460 [42] = experiment: Antitumor activity against human NCI-H460 cells xenografted female BomTac:NMRI-Foxn1nu mouse assessed as increase in histone H3 phosphorylation at 60 mg/kg, iv after 24 hrs administration by immunohistochemical method; format: functional, organism-based
[43] = target: Mitogen-activated protein kinase 11 (Homo sapiens, UniProt Q15759); experiment: Inhibition of p38beta (unknown origin)
Mitogen-activated protein kinase 11, sequence (Q15759 whole entry): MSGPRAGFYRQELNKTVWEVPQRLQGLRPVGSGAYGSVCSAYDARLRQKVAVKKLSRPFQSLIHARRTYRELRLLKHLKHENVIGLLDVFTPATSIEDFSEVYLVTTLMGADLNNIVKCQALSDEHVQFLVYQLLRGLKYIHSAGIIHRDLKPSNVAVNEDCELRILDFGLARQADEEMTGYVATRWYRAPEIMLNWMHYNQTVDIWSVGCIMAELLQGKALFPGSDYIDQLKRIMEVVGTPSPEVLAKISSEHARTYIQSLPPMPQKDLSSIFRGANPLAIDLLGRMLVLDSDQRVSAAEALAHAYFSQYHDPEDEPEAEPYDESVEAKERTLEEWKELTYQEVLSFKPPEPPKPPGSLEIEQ

HeLa [44] = experiment: Antimitotic activity against human HeLa cells assessed as cell apoptosis at 60 nM incubated after 48 hrs by flow cytometric analysis; format: functional, cell-based
BRO melanoma cell line = experiment: Antiproliferative activity against human BRO melanoma cell line assessed as inhibition in cell growth incubated for 72 hrs by Alamar Blue dye based fluorescence spectrophotometric analysis; format: functional
BXPC-3 = experiment: Antitumor activity against human BXPC-3 cells xenografted female BomTac:NMRI-Foxn1nu mouse assessed as T/C at 50 mg/kg, iv twice per week administrated for 2 consecutive days relative to control; format: functional; conditions: time 4 day
NCI-H460 [45] = experiment: Antitumor activity against human NCI-H460 cells xenografted female BomTac:NMRI-Foxn1nu mouse assessed as appearance of cell apoptosis at 60 mg/kg, iv after 47 hrs administration by MRI assay; format: functional, organism-based
A549 = experiment: Antitumor activity against human A549 cells xenografted female BomTac:NMRI-Foxn1nu mouse assessed as T/C at 50 mg/kg, iv twice per week administrated for 2 consecutive days relative to control; format: functional; conditions: time 4 day
HeLa [46] = experiment: Antimitotic activity against human HeLa cells assessed as change in anaphase at 25 nM incubated for 2 hrs by immunofluorescence analysis; format: functional, cell-based
[47] = target: Fibroblast growth factor receptor 3 (Homo sapiens, UniProt P22607); experiment: Inhibition of FGFR3 (unknown origin)
Fibroblast growth factor receptor 3, sequence (P22607 whole entry): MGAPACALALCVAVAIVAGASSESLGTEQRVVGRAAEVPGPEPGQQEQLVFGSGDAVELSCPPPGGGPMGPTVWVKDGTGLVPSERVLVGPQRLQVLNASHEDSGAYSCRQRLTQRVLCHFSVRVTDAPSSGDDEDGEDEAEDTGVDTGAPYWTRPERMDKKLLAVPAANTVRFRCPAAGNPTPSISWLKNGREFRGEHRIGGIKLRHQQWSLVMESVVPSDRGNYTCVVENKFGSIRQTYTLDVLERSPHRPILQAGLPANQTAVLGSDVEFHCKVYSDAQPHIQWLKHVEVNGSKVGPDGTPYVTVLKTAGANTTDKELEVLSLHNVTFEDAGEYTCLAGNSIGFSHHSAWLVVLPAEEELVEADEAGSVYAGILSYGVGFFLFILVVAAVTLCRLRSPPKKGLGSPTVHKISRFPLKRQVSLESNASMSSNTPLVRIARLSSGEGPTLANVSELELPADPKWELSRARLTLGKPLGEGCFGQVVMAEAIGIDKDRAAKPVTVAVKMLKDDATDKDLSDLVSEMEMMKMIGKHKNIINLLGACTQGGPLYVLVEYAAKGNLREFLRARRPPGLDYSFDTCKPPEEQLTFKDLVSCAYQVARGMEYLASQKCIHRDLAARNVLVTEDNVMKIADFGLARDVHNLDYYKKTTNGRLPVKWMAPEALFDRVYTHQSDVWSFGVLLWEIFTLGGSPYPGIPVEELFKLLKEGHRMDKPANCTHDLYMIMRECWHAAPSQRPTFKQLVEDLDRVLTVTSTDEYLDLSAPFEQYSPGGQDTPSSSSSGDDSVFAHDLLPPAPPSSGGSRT

HeLa [48] = experiment: Antimitotic activity against human HeLa cells assessed as accumulation in depolymerization of microtubules in interphase cells at 2500 nM incubated for 2 hrs by immunostaining; format: functional, cell-based
HeLa S3 = experiment: Antiproliferative activity against human HeLa S3 cells assessed as inhibition in cell growth incubated for 72 hrs by Alamar Blue dye based fluorescence spectrophotometric analysis; format: functional; conditions: HeLa S3, 72 h
HeLa [49] = experiment: Antimitotic activity against human HeLa cells assessed as centrosomal gamma tubulin recruitment at 100 to 2500 nM incubated for 2 hrs by immunofluorescence analysis; format: functional, cell-based; conditions: dose 100-2500 nM
HeLa [50] = experiment: Antimitotic activity against human HeLa cells assessed as monopolar asters at 100 to 2500 nM incubated for 2 hrs by immunofluorescence analysis; format: functional, cell-based; conditions: dose 100-2500 nM
HeLa [51] = experiment: Antimitotic activity against human HeLa cells assessed as accumulation multipolar spindles at 100 to 2500 nM incubated for 2 hrs by immunofluorescence analysis; format: functional, cell-based; conditions: dose 100-2500 nM

Compound: CC[C@@H]1C(=O)N(C)c2cnc(Nc3ccc(C(=O)NC4CCN(C)CC4)cc3OC)nc2N1C1CCCC1 [BI-2536]
- inhibition (Mus musculus): Active
- Activity (HeLa [1]): Active
- IC50 [2]: > 10 µM
- Activity (HeLa [3]): Active
- IC50 [4]: > 10 µM
- Activity (HeLa [5]): Active
- IC50 [6]: 9.91 µM
- Activity (HeLa [7]): Active
- Activity (NCI-H460 [8]): Active
- Activity (NCI-H460 [9]): Active
- IC50 [10]: > 10 µM
- IC50 [11]: > 10 µM
- Activity (HeLa [12]): Active
- Activity (HeLa [13]): inactive
- IC50 [14]: > 10 µM
- IC50 [15]: > 10 µM
- T/C (HCT-116 [16]): 16%
- Activity (HeLa [17]): Active
- IC50 [18]: > 10 µM
- Activity (HeLa [19]): Active
- Activity (HeLa [20]): Active
- Activity (HCT-116 [21]): Active
- Activity (HeLa [22]): Active
- Activity (HeLa [23]): inactive
- IC50 (Angiopoietin-1 receptor): 6.55 µM
- IC50 (Ephrin type-A receptor 3): > 10 µM
- Activity [24]: Non-Toxic
- Activity (HeLa [25]): Active
- Activity (HCT-116 [26]): 100%
- IC50 [27]: > 10 µM
- IC50 [28]: > 10 µM
- IC50 [29]: 2.41 µM
- Activity (HeLa [30]): Active
- IC50 [31]: > 10 µM
- IC50 [32]: > 10 µM
- IC50 [33]: > 10 µM
- Activity (HCT-116 [34]): Active
- Activity (TERT-RPE1 [35]): ~70%
- Activity (TERT-RPE1 [36]): ~30%
- IC50 [37]: > 10 µM
- IC50 [38]: > 10 µM
- IC50 [39]: > 10 µM
- Activity [40]: Non-Toxic
- IC50 [41]: > 10 µM
- Activity (NCI-H460 [42]): Active
- IC50 [43]: > 10 µM
- Activity (HeLa [44]): Active
- EC50 (BRO melanoma cell line): 0.002 µM
- T/C (BXPC-3): 5%
- Activity (NCI-H460 [45]): Active
- T/C (A549): 14%
- Activity (HeLa [46]): inactive
- IC50 [47]: > 10 µM

Compound: COc1cc(OC)c(/C=C/S(=O)(=O)Cc2ccc(OC)c(NCC(=O)O)c2)c(OC)c1 [RIGOSERTIB]
- Activity (HeLa [48]): Active
- EC50 (HeLa S3): 0.045 µM
- Activity (HeLa [49]): Active
- Activity (HeLa [50]): inactive
- Activity (HeLa [51]): Active

Reference: ChEMBL document CHEMBL5661973, “BI 2536, a potent and selective inhibitor of polo-like kinase 1, inhibits tumor growth in vivo” (Curr Biol, 2007)
